Patent publication US5527907A, “Macrolide immunomodulators” (Abbott Laboratories, priority 1994, dated 1996)
Like-named read-outs stand apart in the source and are kept apart here.

Tests used:
[1] = tested on: human mixed lymphocyte reaction; experiment: human mixed lymphocyte reaction (MLR) assay; assay type: cell-based
Description: The immunosuppressant activity of the compounds of the present invention was determined using the human mixed lymphocyte reaction (MLR) assay described by Kino, T. et al. in Transplantation Proceedings, XIX(5):36-39,Suppl. 6 (1987).

Candida albicans = conditions: particularly against Candida albicans, both in vitro and in vivo; cited from earlier work
[2] = alone or in combination with picibanil; cited from earlier work
T-cell activation = conditions: cited from earlier work
FKBP-12 = conditions: cited from earlier work
[3] = tested on: formation of IgE-like antibodies; conditions: cited from earlier work
[4] = tested on: organ grafts in histoincompatible rodents; conditions: cited from earlier work
adjuvant arthritis = conditions: model for rheumatoid arthritis; cited from earlier work
[5] = tested on: experimental allergic encephalomyelitis; conditions: model for multiple sclerosis; cited from earlier work
[6] = Mixed Leukocyte Response (MLR), Table 1, read-out: IC50

CO[C@H]1C[C@@H]2CC[C@@H](C)[C@@](O)(O2)C(=O)C(=O)N2CCCC[C@H]2C(=O)O[C@H]([C@H](C)C[C@@H]2CC[C@@H](OC(=O)N3CCOCC3)[C@H](OC)C2)CC(=O)[C@H](C)/C=C(\C)[C@@H](O)[C@@H](OC)C(=O)[C@H](C)C[C@H](C)/C=C/C=C/C=C/1C [Example 3]
IC50 [1, 6]: 0.13 nM

CO[C@H]1C[C@@H]2CC[C@@H](C)[C@@](O)(O2)C(=O)C(=O)N2CCCC[C@H]2C(=O)O[C@H]([C@H](C)C[C@@H]2CC[C@@H](O)[C@H](OC)C2)CC(=O)[C@H](C)/C=C(\C)[C@@H](O)[C@@H](OC)C(=O)[C@H](C)C[C@H](C)/C=C/C=C/C=C/1C [rapamycin]
antifungal activity (Candida albicans): antifungal activity
antitumor activity [2]: antitumor activity
inhibition of T-cell activation (T-cell activation): inhibit T-cell activation
binding to FKBP-12 (FKBP-12): binds to FKBP-12
inhibition of formation of IgE-like antibodies [3]: effectively inhibit the formation of IgE-like antibodies
survival time of organ grafts [4]: prolong survival time of organ grafts
effectiveness as an immunosuppressant (adjuvant arthritis): effective as an immunosuppressant
effectiveness as an immunosuppressant [5]: effective as an immunosuppressant

CO[C@H]1C[C@@H]2CC[C@@H](C)[C@@](O)(O2)C(=O)C(=O)N2CCCC[C@H]2C(=O)O[C@H]([C@H](C)C[C@@H]2CC[C@H](Sc3nccn3C)[C@H](OC)C2)CC(=O)[C@H](C)/C=C(\C)[C@@H](O)[C@@H](OC)C(=O)[C@H](C)C[C@H](C)/C=C/C=C/C=C/1C [Example 39]
IC50 [1, 6]: 0.14 nM

CO[C@H]1C[C@@H]2CC[C@@H](C)[C@@](O)(O2)C(=O)C(=O)N2CCCC[C@H]2C(=O)O[C@H]([C@H](C)C[C@@H]2CC[C@H](n3ccccc3=O)[C@H](OC)C2)CC(=O)[C@H](C)/C=C(\C)[C@@H](O)[C@@H](OC)C(=O)[C@H](C)C[C@H](C)/C=C/C=C/C=C/1C [Example 72]
IC50 [1, 6]: 0.99 nM

CO[C@H]1C[C@@H]2CC[C@@H](C)[C@@](O)(O2)C(=O)C(=O)N2CCCC[C@H]2C(=O)O[C@H]([C@H](C)C[C@@H]2CC[C@H](O)[C@H](OC)C2)CC(=O)[C@H](C)/C=C(\C)[C@@H](O)[C@@H](OC)C(=O)[C@H](C)C[C@H](C)/C=C/C=C/C=C/1C [Example 10, 42-epi-rapamycin]
IC50 [1]: 0.03 nM

C=CC[C@@H]1/C=C(\C)C[C@H](C)C[C@H](OC)[C@H]2O[C@@](O)(C(=O)C(=O)N3CCCC[C@H]3C(=O)O[C@H](/C(C)=C/[C@@H]3CC[C@@H](O)[C@H](OC)C3)[C@H](C)[C@@H](O)CC1=O)[C@H](C)C[C@@H]2OC [FK-506]
binding to FKBP-12 (FKBP-12): binds to FKBP-12

CO[C@H]1C[C@@H]2CC[C@@H](C)[C@@](O)(O2)C(=O)C(=O)N2CCCC[C@H]2C(=O)O[C@H]([C@H](C)C[C@@H]2CC[C@H](OC)[C@H](OC)C2)CC(=O)[C@H](C)/C=C(\C)[C@@H](O)[C@@H](OC)C(=O)[C@H](C)C[C@H](C)/C=C/C=C/C=C/1C [Example 74]
IC50 [1, 6]: 1.81 nM

CO[C@H]1C[C@@H]2CC[C@@H](C)[C@@](O)(O2)C(=O)C(=O)N2CCCC[C@H]2C(=O)O[C@H]([C@H](C)C[C@@H]2CC[C@H](Sc3ncc[nH]3)[C@H](OC)C2)CC(=O)[C@H](C)/C=C(\C)[C@@H](O)[C@@H](OC)C(=O)[C@H](C)C[C@H](C)/C=C/C=C/C=C/1C [Example 38]
IC50 [1, 6]: 0.03 nM

CO[C@H]1C[C@@H]2CC[C@@H](C)[C@@](O)(O2)C(=O)C(=O)N2CCCC[C@H]2C(=O)O[C@H]([C@H](C)C[C@@H]2CC[C@H](n3ccc(=O)cc3)[C@H](OC)C2)CC(=O)[C@H](C)/C=C(\C)[C@@H](O)[C@@H](OC)C(=O)[C@H](C)C[C@H](C)/C=C/C=C/C=C/1C [Example 71]
IC50 [1, 6]: 0.12 nM

CO[C@H]1C[C@@H]2CC[C@@H](C)[C@@](O)(O2)C(=O)C(=O)N2CCCC[C@H]2C(=O)O[C@H]([C@H](C)C[C@@H]2CC[C@H](N=[N+]=[N-])[C@H](OC)C2)CC(=O)[C@H](C)/C=C(\C)[C@@H](O)[C@@H](OC)C(=O)[C@H](C)C[C@H](C)/C=C/C=C/C=C/1C [Example 50]
IC50 [1, 6]: 0.96 nM

CO[C@H]1C[C@@H]2CC[C@@H](C)[C@@](O)(O2)C(=O)C(=O)N2CCCC[C@H]2C(=O)O[C@H]([C@H](C)C[C@@H]2CC[C@@H](OC(=O)N(C)OC)[C@H](OC)C2)CC(=O)[C@H](C)/C=C(\C)[C@@H](O)[C@@H](OC)C(=O)[C@H](C)C[C@H](C)/C=C/C=C/C=C/1C [Example 17]
IC50 [1, 6]: 0.15 nM
